pIC50: −log10 of the molar value. Read-outs that look alike come from different tables or passages of the source.
Target: T1, HIV protease (Human immunodeficiency virus type 1 group M subtype B, UniProt P03366)
T1 construct: the predicted size of the protease is 99 amino acids
Experiment: HIV protease inhibition, fluorometric RP-HPLC assay with N-dansyl-peptide substrate
Format: biochemical
Details: for inhibitory potency (in words): comparison by stereochemistry (2S,3S versus 2R,3R) and by hexan-1-olyl versus hexanoate group; for activity relative to range necessary for therapeutic development: in words; for HIV Protease IC50 values of tested Examples (estimated): *Estimated IC50 from the observed inhibition at 10 μM concentration; for IC50 (estimated): estimated from the % inhibition at 10000 nM final
Description: Following synthesis, the preferred embodiment compounds were tested for HIV protease inhibition. For in vitro potency testing, the N terminus of substrate amino acid sequences were first dansylated. The amino acid sequences present in such N-dansyl-peptide substrates can include, but are not limited to native proteolytic cleavage site sequences for the HIV gag and pol polyproteins.
The prepared substrates were incubated with HIV protease and compounds of the present invention, under conditions in which the protease is catalytically active. […] Following incubation, aliquots of the incubate were analyzed with reverse phase high performance liquid chromatography (hereinafter "RP-HPLC"). Any uncoverted peptide substrate is resolved from peptide product(s) and then detected by an inline fluorescence monitor. The amount of product formed over a known time interval may then be used to calculate the activity of the enzyme under the specific assay conditions. The amount of fluorescence detected in the eluted peak from HPLC can be related to the amount of peptide in the peak by prior HPLC analysis of standardized samples. The amount of peptide in the pure, standardized samples is determined accurately by amino acid analysis.
Inhibitory potency was assessed, in vitro, according to published procedures in Tamburini et al., 1990, "A Fluorometric Assay for HIV-Protease Activity Using High-Performance Liquid Chromatography", Analytical Biochemistry, 186:363.
HIV-protease was pre-incubated with or without the inhibitor compound at 37° C. and under buffer, ionic strength and pH conditions affording optimal protease activity. An N-dansyl-peptide substrate was then added to the incubation mixture. For example the dansylated substrate could be:
N-Dansyl-Ser-Gln-Asn-Tyr-Pro-Ile-Val (SEQ ID NO: 1)
The incubation mixture was then incubated at 37° C. During the incubation, the substrate is cleaved by the protease at the Tyr-Pro peptide bond to yield N-Dansyl-Ser-Gln-Asn-Tyr (SEQ ID NO: 2). At the end of the incubation (40 min) the reaction was terminated by acidification with TFA, and the amounts of unconverted substrate and fluorescent product were detected and quantified by subsequent RP-HPLC analysis with post column fluorescence detection.
The rate of cleavage of the substrate is quantified from the amount of product formed in the known incubation time. Specific assay conditions were as follows:
Incubations (75 ul) containing the complete system without substrate were preincubated at 37° C. for 15 min prior to initiation of the protease reaction by the addition of 25 ul of stock 400 uM substrtate peptide solution. The initial component concentrations at the start of the reaction were: HIV-protease (20 ul of a dilution sufficient to produce 40 to 60% substrate cleavage in 40 min), dimethyl sulphoxide (5%v/v), N-Dansyl-Ser-Gln-Asn-Tyr- […] (SEQ ID NO: 1) (100 uM), and sodium chloride (3 M) in 150 mM mes buffer pH 6.0. After a further incubation time of 40 min at 37° C. reactions were terminated by the addition of 50 ul of 12% (v/v) tri-flouroacetic acid, and then loaded into the HPLC autosampler for analysis.
Inhibitors were added to the incubation mixtures […] to protease addition before the preincubation, as stock solutions in dimethyl suphoxide, lower concentrations of inhibitor were obtained by serial dilution of the incubation mixture containing the highest inhibitor concentration. The range of inhibitor concentrations were designed to cover the range yielding zero to 100% inhibition of protease activity. Dilution of the HIV-protease activity (so as to achieve an amount of enzyme activity in 20 ul to produce 40 to 60% substrate conversion when added to the incubation) was achieved using the following buffer: 50 mM sodium acetate buffer pH 5.2, 50 mM sodium chloride, 20 mM DL-dithiothreitol, 20% (v/v) glycerol, 0.1% (v/v) triton X-100 and 1.5 M urea. […]

[1] = Table I, NI = no inhibition at 10 μM final concentration, 37 °C, 40 min, pH 6.0, read-out: HIV Protease IC50 values of tested Examples
[2] = Table II, titrated (Dixon plot, inhibitor up to 100-10000 nM), NI = no inhibition (tested at 10000 nM), read-out: IC50 (concentration in the assay incubation which inhibits the HIV protease activity by 50%)

Row | inhibitory potency (in words) | Structure (SMILES) | pIC50 [1] | pIC50 [2] | other results
1 |  | CC[C@H](C)[C@H](NC(=O)[C@@H]1CCCN1[C@@H](C(=O)OC)[C@@H](CC(C)C)NC(=O)OCc1ccccc1)C(=O)NCc1ccccc1 [Example 8] | < 5.00 | < 5.00 | 
2 | significant inhibitor potency | CC[C@H](C)[C@H](NC(=O)[C@@H]1CCCN1[C@H](CO)[C@H](CC(C)C)NC(=O)[C@H](CC(N)=O)NC(=O)OCc1ccccc1)C(=O)NCc1ccccc1 [Example 12, (2S, 3S) N-[2-(3-(N-carbobenzyloxy-asparaginyl)amino-5-methylhexan-1-olyl)]-Prolyl-Isoleucine N-Benzyl amide] | 6.90 |  | increase in inhibitory potency by additional Asn residue (Example 12 versus Example 9): 152 fold; activity relative to range necessary for therapeutic development: within the range necessary for therapeutic development
3 | significant inhibitor potency | CC[C@H](C)[C@H](NC(=O)[C@@H]1CCCN1[C@H](CO)[C@H](CC(C)C)NC(=O)[C@H](CC(N)=O)NC(=O)c1ccc2ccccc2n1)C(=O)NCc1ccccc1 [Example 15] | 7.46 |  | increase in inhibitory potency by N-quinaldehyde in place of N-carbo-benzyloxy (Example 15 versus Example 12): 3.6 fold; activity relative to range necessary for therapeutic development: within the range necessary for therapeutic development
4 | significant inhibitor potency | CC[C@H](C)[C@H](NC(=O)[C@@H]1CCCN1[C@H](CO)[C@H](CC(C)C)NC(=O)OCc1ccccc1)C(=O)NCc1ccccc1 [Example 9, (2S, 3S) N-[2-(3-carbobenzyoxyamino-5-methylhexan-1-olyl)]-Prolyl-Isoleucine N-Benzyl amide] | 5.72 |  | 
5 |  | CC[C@H](C)[C@H](NC(=O)[C@@H]1CCCN1[C@H](C(=O)OC)[C@H](CC(C)C)NC(=O)OCc1ccccc1)C(=O)NCc1ccccc1 [Example 7, (2S, 3S) N-[methyl 2-(3-carbobenzyloxyamino-5-methyl-hexanoyl)]-Prolyl-Isoleucine N-Benzyl amide] | < 5.00 | < 5.00 | 
6 |  | CC[C@H](C)[C@H](NC(=O)[C@@H]1CCCN1[C@H](C(=O)OC)[C@H](CC(C)C)NC(=O)[C@H](CC(N)=O)NC(=O)c1ccc2ccccc2n1)C(=O)NCc1ccccc1 [Example 14] |  |  | HIV Protease IC50 values of tested Examples (estimated) (Table I): > 50 µM; IC50 (estimated) (Table II): > 50 µM
7 |  | CC[C@H](C)[C@H](NC(=O)[C@@H]1CCCN1[C@@H](C(=O)OC)[C@@H](CC(C)C)NC(=O)[C@H](CC(N)=O)NC(=O)c1ccc2ccccc2n1)C(=O)NCc1ccccc1 [Example 16, (2R, 3R) N-[2 (3-(N-guinaldyl-asparaginyl)amino-5-methyl-hexanoate)]-Prolyl-Isoleucine N-Benzyl amide] | < 5.00 | < 5.00 | 
8 |  | CC[C@H](C)[C@H](NC(=O)[C@@H]1CCCN1[C@H](C(=O)OC)[C@H](CC(C)C)NC(=O)[C@H](CC(N)=O)NC(=O)OCc1ccccc1)C(=O)NCc1ccccc1 [Example 11b] |  |  | HIV Protease IC50 values of tested Examples (estimated) (Table I): 15 µM; IC50 (estimated) (Table II): 15 µM
9 | innactive or poorly active | CC[C@H](C)[C@H](NC(=O)[C@@H]1CCCN1[C@@H](CO)[C@@H](CC(C)C)NC(=O)[C@H](CC(N)=O)NC(=O)c1ccc2ccccc2n1)C(=O)NCc1ccccc1 [Example 17, (2R, 3R) N-[2-(3-(N-guinaldyl-asparaginyl)amino-5-methylhexan-1-olyl)]-Prolyl-Isoleucine N-Benzyl amide] |  |  | HIV Protease IC50 values of tested Examples (estimated) (Table I): 15 µM; IC50 (estimated) (Table II): 15 µM
10 |  | CC[C@H](C)[C@H](NC(=O)[C@@H]1CCCN1[C@H](C(=O)OC)[C@H](CC(C)C)NC(=O)[C@H](CC#N)NC(=O)OCc1ccccc1)C(=O)NCc1ccccc1 [Example 11a] | < 5.00 | < 5.00 | 

Row | Structure (SMILES) | inhibitory potency (in words) | pIC50 [1] | pIC50 [2] | other results
11 | CC[C@H](C)[C@H](NC(=O)[C@@H]1CCCN1[C@@H](CO)[C@@H](CC(C)C)NC(=O)OCc1ccccc1)C(=O)NCc1ccccc1 [Example 10] | innactive or poorly active | < 5.00 | < 5.00 | 
